Patent EP4799647A1, “CAMPTOTHECIN DRUG CONJUGATE, AND PREPARATION METHOD THEREFOR AND USE THEREOF” (Shanghai Qilu Pharmaceutical Research and Development …, priority 2023, dated 2025)

Experiments:
Assay in all cases: Cell inhibitory activity experiment (CellTiter-Glo, 72 hours)
Type in all cases: cell-based
AsPC-1 = settings: Homo sapiens, ASPC1; AsPC-1, 72 hours
Procedure: (§1) • a) All cell lines were cultured in complete medium at 37 °C under 5% CO2. • b) Cells in logarithmic growth phase were collected and counted by a […]. The cell viability was detected by trypan blue exclusion method, and guaranteed to be over 90%. • c) The cell density was adjusted with a complete medium. Subsequently, 80 µL of cell suspension was seeded into each well of a 96-well cell culture plate according to 3000 cells per well. • d) The cells in the 96-well plate were cultured at 37°C under 5% CO2. • e) 10× drug solution was prepared. […] The working concentration of the test compound was 5 µM. For the test group, 10 µL of serially diluted test compound was transferred into the corresponding experimental well of 96-well cell culture plate, and added with 10 µL of diluent containing an equal amount of DMSO (1%), and three replicate wells were set up for each drug concentration. Control wells were added with corresponding volumes of diluent. • f) The cells in the 96-well plate added with the drug were continuously cultured at 37°C under 5% CO2 for 72 hours. • g) CTG reagent (CellTiter-Glo® Luminescent Cell Viability Assay, purchased from Promega, Cat. No. G7571) was thawed, and the cell culture plate was equilibrated to room temperature for 30 minutes. • h) 100 µL of CTG solution was added into each well. • i) The plate was shaken on an orbital shaker for 5 minutes to induce cell lysis. • j) The cell culture plate was placed at room temperature for 20 minutes to stabilize luminescent signals. • k) Luminescence intensities were read, and data were collected. • l) The data were analyzed by using GraphPad Prism 7.0 software, non-linear S-curve regression was applied to fit the data for generating dose-response curves, and IC50 values were calculated accordingly. Specific experimental results were shown in Table 4. [formula] Table 4 Cell inhibitory activities of payload compounds in the present invention

A549 = settings: Homo sapiens; A549, 72 hours
Procedure: as §1

COLO205 = settings: Homo sapiens, COLO 205; COLO205, 72 hours
Procedure: as §1

HT29 = settings: Homo sapiens, HT-29; HT29, 72 hours
Procedure: as §1

HCT15 = settings: Homo sapiens, HCT-15; HCT15, 72 hours
Procedure: as §1

SK-OV-3 = settings: Homo sapiens; SK-OV-3, 72 hours
Procedure: as §1

COLO320DM = settings: Homo sapiens, COLO 320DM
Procedure: as §1

Row | SMILES | IC50 (AsPC-1) | IC50 (A549) | IC50 (COLO205) | IC50 (HT29) | IC50 (HCT15) | IC50 (SK-OV-3) | IC50 (COLO320DM)
1 | CC[C@@]1(O)C(=O)OCc2c1cc1n(c2=O)Cc2c-1nc1cc(F)c(C)c3c1c2[C@@H](NC(=O)CO)CC3 [DXd] | 3.1 µM | 0.104 µM | 0.0955 µM | 0.344 µM | 0.889 µM | 0.288 µM | 0.575 µM
2 | CCc1c2c(nc3ccc(O)cc13)-c1cc3c(c(=O)n1C2)COC(=O)[C@]3(O)CC [SN-38] | > 10 µM | 0.0665 µM | 0.0896 µM | 0.287 µM | 0.313 µM | 0.168 µM | 1.42 µM
3 | CC[C@@]1(O)C(=O)OCc2c1cc1n(c2=O)Cc2c-1nc1cc(F)c(F)cc1c2CO [C1-5, (4S)-4-ethyl-8,9-difluoro-4-hydroxy-11-(hydroxymethyl)-3,4,12,14-tetrahydro-1H-pyrano[3', 4':6,7]indolizino[1,2-b]quinolin-3,14-dione] | 1.12 µM | 0.0211 µM | 0.0243 µM | 0.144 µM | 0.142 µM | 0.0795 µM | 0.196 µM
